Literature values as cited in patent US20170035793A1, “Use of P2X Purinergic Receptor Agonists to Enhance Insulin Secretion In Pancreatic Beta Cells” (priority 2010, published 2017).

Biological target: T1, P2X7 receptors (Homo sapiens, UniProt Q99572)
T1 sequence (Q99572 1-595): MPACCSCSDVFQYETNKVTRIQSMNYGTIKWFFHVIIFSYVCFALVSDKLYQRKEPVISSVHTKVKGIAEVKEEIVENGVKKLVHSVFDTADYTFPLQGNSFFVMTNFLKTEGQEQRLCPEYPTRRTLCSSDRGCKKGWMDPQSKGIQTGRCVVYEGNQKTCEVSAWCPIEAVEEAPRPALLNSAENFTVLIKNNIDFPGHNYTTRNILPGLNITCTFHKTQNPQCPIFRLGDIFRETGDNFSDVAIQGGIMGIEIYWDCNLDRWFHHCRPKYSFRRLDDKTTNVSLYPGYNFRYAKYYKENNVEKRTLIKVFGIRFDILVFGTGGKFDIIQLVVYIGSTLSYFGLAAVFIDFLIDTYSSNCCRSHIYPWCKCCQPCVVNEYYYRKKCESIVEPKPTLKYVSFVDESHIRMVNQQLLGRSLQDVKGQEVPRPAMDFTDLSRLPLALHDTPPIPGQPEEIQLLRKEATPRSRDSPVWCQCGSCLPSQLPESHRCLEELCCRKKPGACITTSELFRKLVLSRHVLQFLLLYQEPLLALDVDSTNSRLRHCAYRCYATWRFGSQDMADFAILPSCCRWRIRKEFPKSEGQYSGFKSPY
Conditions: cited from earlier work

Nc1ncnc2c1ncn2[C@@H]1O[C@H](COP(=O)(O)OP(=O)(O)OP(=O)(O)O)[C@@H](O)[C@H]1O [ATP]
ATP concentrations required for activation of homomeric P2X7 receptors: > 100
EC50 (read-out: EC50 for activation of P2X7 receptors): 100 µM
